According to US12459931B2, “Benzothiophene derivative regulator, preparation method therefor and use thereof” (Shanghai Hansoh Biomedical Co., Ltd., priority 2019, dated 2025):

Experiments:
[1] = Stability assay in liver microsome in vitro; type: in vitro ADME, Mouse
Experimental: IV. Stability Assay in Liver Microsome In Vitro
To evaluate the metabolic stability of the compounds of the present invention in liver microsome in vitro.
Formulation of the working solution of the compound: 2 μL of the stock solution of the compound was added to 998 μL of phosphate buffer, and the final concentration was 20 μM.
Formulation of the working solution of the control compound (7-hydroxycoumarin): The formulation was consistent with that of the compound. • 3.2. Formulation of the working solution of liver microsome
78.1 μL of 20 mg/mL microsome was diluted to 2.5 mL with 100 mM phosphate buffer and mixed well, and the final concentration was 0.625 mg/mL. • 3.3. Formulation of NADPH and UDPGA
33.3 mg of NADPH and 25.8 mg of UDPGA were weighed respectively, followed by the addition of 2 mL of 100 mM phosphate buffer. The final concentrations were 20 mM. • 3.4. Formulation of the channel-forming reagent (Alamethicin)
1 mg of Alamethicin was weighed, to which 200 μL of DMSO was added to obtain a 5 mg/mL solution. 10 μL of this solution was added to 990 μL of phosphate buffer (pH 7.4), and the final concentration was 50 μg/mL. • 3.5. Formulation of the reaction stop solution
Stop solution: Cold acetonitrile containing 100 ng/mL labetalol hydrochloride and 400 ng/mL tolbutamide was used as internal standards, and stored in a refrigerator at 2 to 8° C. • 3.6. Incubation procedure
400 μL of the formulated liver microsome, 25 μL of the working solution of the compound […] and 25 μL of Alamethicin (50 μg/mL) were added to a 96-well plate successively, which was then pre-incubated at 37° C. for 10 min. 50 μL of the formulated NADPH/UDPGA was added to initiate the reaction, and the plate was incubated at 37° C. The total volume of the reaction system was 500 μL. The final contents of the components were as follows:
[…] The resulting sample was centrifuged at 4000 g for 10 min, and the supernatant was collected for LC-MS/MS analysis.

[2] = Toxicity test by repeated intragastric administration for 14 days in SD rats (with toxicokinetics); type: in vivo, Sprague-Dawley (SD) rats; conditions: both sexes, Sprague-Dawley, rat, in vivo, po; SD rats, intragastric once a day for two weeks; read-out: Maximum tolerated dose (MTD)
From the text: (§1) VI. Toxicity Test by Repeated Intragastric Administration for 14 Days in SD Rats
(§2) The objective of this study was to investigate the possible toxicity of compounds after repeated intragastric administration to SD rats for 14 days. • 6.2 Experimental materials and instruments: • 6.2.1 Test compound
(§3) Test compound 1: the compound of Example 42. • 6.2.2 Vehicle:
(§4) Name: 0.5% CMC-Na (1% tween80) aqueous solution • 6.2.3 Animal information:
(§5) Species & strain: Sprague-Dawley (SD) rats
(§6) […] were divided into […] according to their sex and body weight. 40 rats were used for toxicology study (groups 1 to 4, 5 rats/sex/group), and 24 rats were used for toxicokinetics study (groups 5 to 8, 3 rats/sex/group). The animals in groups 1 and 5 were intragastrically administered with 0.5% CMC-Na (1% tween80) aqueous solution as the vehicle control groups. The animals in groups 2 and 6, 3 and 7, 4 and 8 were intragastrically administered with the compound of Example 42 at a dose of 2, 10 and 30 mg/kg, respectively. The animals were administered once a day for 14 consecutive days. The administration volumes were 10 mL/kg. During the experiment, clinical observation, body weight, food intake, body temperature, clinicopathological indicators (blood cell count, coagulation function, blood biochemistry) and toxicokinetics were monitored. All animals were euthanized on D15. During the experiment, the animals in groups 1 to 4 were subjected to gross anatomical observation. Histopathological examination was carried out on abnormal tissue and brain, kidney, adrenal gland, lung and bronchi, prostate, testis and epididymis. • 6.4 List of test data • 6.4.1 Dying/death

[3] = system: SD rats; experiment: as above; type: in vivo, Sprague-Dawley (SD) rats
From the text: as §1, §2, §3, §4, §5, §6

[4] = molecular target: 5-HT2A receptor (Homo sapiens (Human), UniProt P28223); experiment: Effect on calcium ion mobility in cells stably expressing 5-HT2A receptors (Flp-In-CHO-5HT2A, FLIPR); type: cell-based; conditions: Flp-In-CHO-5HT2A cells, 5HT as agonist
5-HT2A receptor, sequence (P28223 whole entry): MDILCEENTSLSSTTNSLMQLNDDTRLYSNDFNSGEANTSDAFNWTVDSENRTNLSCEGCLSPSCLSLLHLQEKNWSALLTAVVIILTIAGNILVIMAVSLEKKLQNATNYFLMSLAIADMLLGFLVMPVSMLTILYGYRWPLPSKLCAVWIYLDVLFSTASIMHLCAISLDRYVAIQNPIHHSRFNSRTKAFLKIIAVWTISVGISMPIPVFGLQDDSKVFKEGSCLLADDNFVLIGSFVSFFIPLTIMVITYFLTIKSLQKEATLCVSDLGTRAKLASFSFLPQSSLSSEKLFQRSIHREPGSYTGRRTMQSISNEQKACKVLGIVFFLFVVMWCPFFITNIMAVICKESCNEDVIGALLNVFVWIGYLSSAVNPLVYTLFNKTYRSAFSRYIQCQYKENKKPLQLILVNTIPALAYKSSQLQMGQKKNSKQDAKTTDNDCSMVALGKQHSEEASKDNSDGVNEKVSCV
Experimental: To determine the inhibitory effect of the compounds on 5-HT2A receptor.
Probenecid and BSA were added fresh on the day of the experiment.
The calcium signal values were determined by FLIPR. […] The percent inhibition rate and ten-point concentration data were fitted to the parametric nonlinear logistic equation by using GraphPad prism to calculate the IC50 values of the compound.

[5] = molecular target: D3 receptor (Homo sapiens (Human), UniProt P35462); experiment: Effect on cAMP content in cells stably expressing D3 receptors (CHO-D3); type: cell-based; conditions: forskolin stimulated, activation
D3 receptor, sequence (P35462 whole entry): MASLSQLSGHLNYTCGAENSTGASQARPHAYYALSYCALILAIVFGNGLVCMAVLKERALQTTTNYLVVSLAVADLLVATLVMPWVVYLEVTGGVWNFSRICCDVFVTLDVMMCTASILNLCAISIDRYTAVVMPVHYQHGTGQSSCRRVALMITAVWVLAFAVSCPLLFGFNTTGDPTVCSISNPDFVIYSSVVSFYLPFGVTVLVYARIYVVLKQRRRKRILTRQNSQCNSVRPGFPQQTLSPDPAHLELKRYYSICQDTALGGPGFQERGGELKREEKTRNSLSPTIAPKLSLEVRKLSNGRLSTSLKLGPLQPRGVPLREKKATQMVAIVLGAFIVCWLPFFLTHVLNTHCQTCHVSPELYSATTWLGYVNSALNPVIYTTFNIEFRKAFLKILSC
Experimental: To determine the activation effect of the compounds on D3 receptor.
3. The experimental buffer (1*HBSS, 0.1% BSA, 20 mM HEPES and 500 μM IBMX) was prepared. The compound was diluted with the buffer. 2.5 μL of the compound solution was added to each well, and the plate was incubated at 37° C. for 10 minutes. The forskolin was diluted to 8 μM (8*) with the experimental buffer. […] The reaction plate was centrifuged at 200 g for 30 s at room temperature, and left to stand at 25° C. for 1 h. Data was collected using Envision.

[6] = SD rats, 2, 10 or 30 mg/kg, two weeks

CC(C)(O)C(=O)N[C@H]1CC[C@H](CCN2CCN(c3cccc4sccc34)CC2)CC1 [Example 41, N-(Trans-4-(2-(4-(benzo[b]thiophen-4-yl)piperazin-1-yl)ethyl)cyclohexyl)-2-hydroxy-2-methylpropanamide]
half-life at 1 μM ([1]; CD-1, liver microsomes, pH 7.4, Mouse liver microsome 0.5 mg/mL, compound 1 μM, NADPH/UDPGA, read-out: Half life (t1/2)): 2.72 h
microsomal CLint at 1 μM ([1]; CD-1, liver microsomes, pH 7.4, Mouse liver microsome, note: Slow <8.8, Rapid >48.0, read-out: Intrinsic clearance rate (CLint)): 21.3 µL/min/mg
Remaining (%, 120 min) ([1]; Mouse liver microsome, 120 min): 80.6%

O=C(N[C@H]1CC[C@H](CCN2CCN(c3cccc4sccc34)CC2)CC1)C1(O)CC1 [Example 42, N-(Trans-4-(2-(4-(benzo[b]thiophen-4-yl)piperazin-1-yl)ethyl)cyclohexyl)-1-hydroxycyclopropane-1-carboxamide]
MTD at 14 days [2]: 30 mg/kg
Main target organs for toxicity [3, 6]: the lungs and adrenal glands
Main toxic responses: blood counts [3, 6]: WBC, Lymph, Retic and PLT are decreased
Main toxic responses: body weight, food intake and body temperature [3, 6]: body weight, food intake and body temperature are decreased
Main toxic responses: coagulation function [3, 6]: FIB wis decreased, and APTT is shortened
Accumulation ([3]; SD rats, 14 days intragastric, 2, 10 or 30 mg/kg): no accumulation
Average exposure versus dose ([3]; SD rats, female and male, D1 and D14): increased with the increase of the dose
IC50 [4]: 3.42 nM
EC50 [5]: 1.1 nM
